Test system: primary mouse NPCs
Test: TUNEL assay, mouse NPCs
Format: cell-based
Settings: 40 μM
Method: Primary neural progenitor cells (NPCs) were a gift from Dr. Harley Kornblum (University of California Los Angeles). The cells were collected from embryonic day 14 (E14) mouse brain according to procedures approved by the UCLA Chancellor's Committee for Animal Research. The following supplements were added to the Neurobasal media: 1:50 B27, 1:100 Pen-Strep, 2 mM 1-glutamine (all from GIBCO/BRL), 2 μg/ml heparin (Sigma), and 20 ng/ml FGF2 (PeproTech). Cells were incubated at 37° C. in the presence of 5% CO2. Additional FGF2 was added every third day, and cultures were passaged every 7 days. During each passage, spheres were enzymatically and mechanically dissociated with Accumax (Sigma).
Click-iT® Plus TUNEL Assay (Molecular Probes Life Technologies, Catalog #: C10617)
Primary mouse NPCs were passaged and counted as previously described. Cells without treatment were used as a negative control, DNaseI (Cat. no. 18068-015) was used to generate a positive control, and 10 μL of inhibitor solutions were used at varying concentrations. A 24-well plate was prepped with 12 mm circle glass coverslips in the wells. Coverslips were coated with poly-L-lysine followed by laminin prior to plating the cells. […]

In the case of `CN(Cc1ccc(/C=C/C(=O)NO)cc1)CC12CC3CC(CC(C3)C1)C2` [Martinostat], the “toxicity by average cell population count of confocal images” value (5 positions) is reported as “higher toxicity” and the TUNEL positive cells (FIG. 11A) is reported as “perceived elevation”.

From patent publication US20220089616A1, “CARBORANE-BASED HISTONE DEACETYLASE (HDAC) INHIBITORS” (The Regents of the University of California, priority 2018, published 2022)
